{"source": "the NIST ThermoML archive (doi:10.1016/j.jct.2010.07.016)", "key": {"[1]": {"assay": "xn = mol fraction of the nth substance listed", "settings": "308.15 K, 101 kPa, Liquid; for excess molar volume: Direct dilatometry; for speed of sound: Linear variable-path acoustic interferometer"}, "[2]": {"assay": "excess molar enthalpy (molar enthalpy of mixing); xn = mol fraction of the nth substance listed", "settings": "308.15 K, 101 kPa, Liquid, Drop calorimeter"}}, "note": "Numbers after ± are expanded uncertainties.", "data": [{"smiles": "Cc1ccccc1C", "note": "[1,2-dimethylbenzene] + C1CCOCC1", "values": [{"measurement": "excess molar volume", "setting": "[1]; x2 = 0.0536", "result": "-1.2e-08 ± 2e-09", "unit": "m3/mol"}, {"measurement": "excess molar volume", "setting": "[1]; x2 = 0.0643", "result": "-1.4e-08 ± 2e-09", "unit": "m3/mol"}, {"measurement": "excess molar volume", "setting": "[1]; x2 = 0.0805", "result": "-1.7e-08 ± 2e-09", "unit": "m3/mol"}, {"measurement": "excess molar volume", "setting": "[1]; x2 = 0.1127", "result": "-2.3e-08 ± 2e-09", "unit": "m3/mol"}, {"measurement": "excess molar volume", "setting": "[1]; x2 = 0.1816", "result": "-3.4e-08 ± 2e-09", "unit": "m3/mol"}, {"measurement": "excess molar volume", "setting": "[1]; x2 = 0.2975", "result": "-4.7e-08 ± 2e-09", "unit": "m3/mol"}, {"measurement": "excess molar volume", "setting": "[1]; x2 = 0.3954", "result": "-5.3e-08 ± 2e-09", "unit": "m3/mol"}, {"measurement": "excess molar volume", "setting": "[1]; x2 = 0.4935", "result": "-5.5e-08 ± 2e-09", "unit": "m3/mol"}, {"measurement": "excess molar volume", "setting": "[1]; x2 = 0.52", "result": "-5.4e-08 ± 2e-09", "unit": "m3/mol"}, {"measurement": "excess molar volume", "setting": "[1]; x2 = 0.5642", "result": "-5.3e-08 ± 2e-09", "unit": "m3/mol"}, {"measurement": "excess molar volume", "setting": "[1]; x2 = 0.6421", "result": "-4.8e-08 ± 2e-09", "unit": "m3/mol"}, {"measurement": "excess molar volume", "setting": "[1]; x2 = 0.7314", "result": "-4e-08 ± 2e-09", "unit": "m3/mol"}, {"measurement": "excess molar volume", "setting": "[1]; x2 = 0.8832", "result": "-1.9e-08 ± 2e-09", "unit": "m3/mol"}, {"measurement": "excess molar volume", "setting": "[1]; x2 = 0.9228", "result": "-1.3e-08 ± 2e-09", "unit": "m3/mol"}, {"measurement": "speed of sound", "setting": "[1]; x2 = 0.0854", "result": "1319 ± 3", "unit": "m/s"}, {"measurement": "speed of sound", "setting": "[1]; x2 = 0.1494", "result": "1315 ± 3", "unit": "m/s"}, {"measurement": "speed of sound", "setting": "[1]; x2 = 0.2134", "result": "1309 ± 3", "unit": "m/s"}, {"measurement": "speed of sound", "setting": "[1]; x2 = 0.2834", "result": "1303 ± 3", "unit": "m/s"}, {"measurement": "speed of sound", "setting": "[1]; x2 = 0.3778", "result": "1293 ± 3", "unit": "m/s"}, {"measurement": "speed of sound", "setting": "[1]; x2 = 0.4756", "result": "1281 ± 3", "unit": "m/s"}, {"measurement": "speed of sound", "setting": "[1]; x2 = 0.5132", "result": "1277 ± 3", "unit": "m/s"}, {"measurement": "speed of sound", "setting": "[1]; x2 = 0.5668", "result": "1270 ± 3", "unit": "m/s"}, {"measurement": "speed of sound", "setting": "[1]; x2 = 0.6124", "result": "1265 ± 3", "unit": "m/s"}, {"measurement": "speed of sound", "setting": "[1]; x2 = 0.7035", "result": "1254 ± 3", "unit": "m/s"}, {"measurement": "speed of sound", "setting": "[1]; x2 = 0.7866", "result": "1245 ± 3", "unit": "m/s"}, {"measurement": "speed of sound", "setting": "[1]; x2 = 0.8645", "result": "1237 ± 3", "unit": "m/s"}, {"measurement": "speed of sound", "setting": "[1]; x2 = 0.9344", "result": "1230 ± 3", "unit": "m/s"}, {"measurement": "speed of sound", "setting": "[1]; x2 = 0.9545", "result": "1228 ± 3", "unit": "m/s"}, {"measurement": "excess molar enthalpy", "setting": "[2]; x2 = 0.0587", "result": "-0.00636 ± 0.000263", "unit": "kcal/mol"}, {"measurement": "excess molar enthalpy", "setting": "[2]; x2 = 0.0691", "result": "-0.00729 ± 0.000263", "unit": "kcal/mol"}, {"measurement": "excess molar enthalpy", "setting": "[2]; x2 = 0.0838", "result": "-0.00851 ± 0.000287", "unit": "kcal/mol"}, {"measurement": "excess molar enthalpy", "setting": "[2]; x2 = 0.1451", "result": "-0.0123 ± 0.000359", "unit": "kcal/mol"}, {"measurement": "excess molar enthalpy", "setting": "[2]; x2 = 0.1809", "result": "-0.0137 ± 0.000382", "unit": "kcal/mol"}, {"measurement": "excess molar enthalpy", "setting": "[2]; x2 = 0.2454", "result": "-0.0147 ± 0.000406", "unit": "kcal/mol"}, {"measurement": "excess molar enthalpy", "setting": "[2]; x2 = 0.3023", "result": "-0.0141 ± 0.000382", "unit": "kcal/mol"}, {"measurement": "excess molar enthalpy", "setting": "[2]; x2 = 0.3872", "result": "-0.0111 ± 0.000335", "unit": "kcal/mol"}, {"measurement": "excess molar enthalpy", "setting": "[2]; x2 = 0.4425", "result": "-0.00817 ± 0.000287", "unit": "kcal/mol"}, {"measurement": "excess molar enthalpy", "setting": "[2]; x2 = 0.5752", "result": "0.000574 ± 0.000191", "unit": "kcal/mol"}, {"measurement": "excess molar enthalpy", "setting": "[2]; x2 = 0.647", "result": "0.00526 ± 0.000239", "unit": "kcal/mol"}, {"measurement": "excess molar enthalpy", "setting": "[2]; x2 = 0.7443", "result": "0.0101 ± 0.000311", "unit": "kcal/mol"}, {"measurement": "excess molar enthalpy", "setting": "[2]; x2 = 0.8495", "result": "0.0112 ± 0.000335", "unit": "kcal/mol"}, {"measurement": "excess molar enthalpy", "setting": "[2]; x2 = 0.9437", "result": "0.00638 ± 0.000263", "unit": "kcal/mol"}]}, {"smiles": "Cc1cccc(C)c1", "note": "[1,3-dimethylbenzene] + C1CCOCC1", "values": [{"measurement": "excess molar volume", "setting": "[1]; x2 = 0.0626", "result": "-6e-09 ± 2e-09", "unit": "m3/mol"}, {"measurement": "excess molar volume", "setting": "[1]; x2 = 0.1258", "result": "-1.2e-08 ± 2e-09", "unit": "m3/mol"}, {"measurement": "excess molar volume", "setting": "[1]; x2 = 0.1731", "result": "-1.7e-08 ± 2e-09", "unit": "m3/mol"}, {"measurement": "excess molar volume", "setting": "[1]; x2 = 0.2459", "result": "-2.2e-08 ± 2e-09", "unit": "m3/mol"}, {"measurement": "excess molar volume", "setting": "[1]; x2 = 0.3452", "result": "-2.8e-08 ± 2e-09", "unit": "m3/mol"}, {"measurement": "excess molar volume", "setting": "[1]; x2 = 0.4411", "result": "-3.2e-08 ± 2e-09", "unit": "m3/mol"}, {"measurement": "excess molar volume", "setting": "[1]; x2 = 0.4801", "result": "-3.2e-08 ± 2e-09", "unit": "m3/mol"}, {"measurement": "excess molar volume", "setting": "[1]; x2 = 0.5413", "result": "-3.2e-08 ± 2e-09", "unit": "m3/mol"}, {"measurement": "excess molar volume", "setting": "[1]; x2 = 0.6033", "result": "-3.2e-08 ± 2e-09", "unit": "m3/mol"}, {"measurement": "excess molar volume", "setting": "[1]; x2 = 0.6541", "result": "-3e-08 ± 2e-09", "unit": "m3/mol"}, {"measurement": "excess molar volume", "setting": "[1]; x2 = 0.7113", "result": "-2.7e-08 ± 2e-09", "unit": "m3/mol"}, {"measurement": "excess molar volume", "setting": "[1]; x2 = 0.7852", "result": "-2.2e-08 ± 2e-09", "unit": "m3/mol"}, {"measurement": "excess molar volume", "setting": "[1]; x2 = 0.8934", "result": "-1.2e-08 ± 2e-09", "unit": "m3/mol"}, {"measurement": "excess molar volume", "setting": "[1]; x2 = 0.9229", "result": "-9e-09 ± 2e-09", "unit": "m3/mol"}, {"measurement": "speed of sound", "setting": "[1]; x2 = 0.0923", "result": "1277 ± 3", "unit": "m/s"}, {"measurement": "speed of sound", "setting": "[1]; x2 = 0.1515", "result": "1273 ± 3", "unit": "m/s"}, {"measurement": "speed of sound", "setting": "[1]; x2 = 0.2161", "result": "1269 ± 3", "unit": "m/s"}, {"measurement": "speed of sound", "setting": "[1]; x2 = 0.285", "result": "1264 ± 3", "unit": "m/s"}, {"measurement": "speed of sound", "setting": "[1]; x2 = 0.3278", "result": "1261 ± 3", "unit": "m/s"}, {"measurement": "speed of sound", "setting": "[1]; x2 = 0.3611", "result": "1259 ± 3", "unit": "m/s"}, {"measurement": "speed of sound", "setting": "[1]; x2 = 0.4081", "result": "1256 ± 3", "unit": "m/s"}, {"measurement": "speed of sound", "setting": "[1]; x2 = 0.4621", "result": "1253 ± 3", "unit": "m/s"}, {"measurement": "speed of sound", "setting": "[1]; x2 = 0.5179", "result": "1250 ± 3", "unit": "m/s"}, {"measurement": "speed of sound", "setting": "[1]; x2 = 0.5568", "result": "1248 ± 3", "unit": "m/s"}, {"measurement": "speed of sound", "setting": "[1]; x2 = 0.6179", "result": "1244 ± 3", "unit": "m/s"}, {"measurement": "speed of sound", "setting": "[1]; x2 = 0.7078", "result": "1239 ± 3", "unit": "m/s"}, {"measurement": "speed of sound", "setting": "[1]; x2 = 0.7889", "result": "1235 ± 3", "unit": "m/s"}, {"measurement": "speed of sound", "setting": "[1]; x2 = 0.8646", "result": "1231 ± 3", "unit": "m/s"}, {"measurement": "excess molar enthalpy", "setting": "[2]; x2 = 0.0474", "result": "-0.00437 ± 0.000215", "unit": "kcal/mol"}, {"measurement": "excess molar enthalpy", "setting": "[2]; x2 = 0.086", "result": "-0.0071 ± 0.000263", "unit": "kcal/mol"}, {"measurement": "excess molar enthalpy", "setting": "[2]; x2 = 0.1141", "result": "-0.00863 ± 0.000287", "unit": "kcal/mol"}, {"measurement": "excess molar enthalpy", "setting": "[2]; x2 = 0.1754", "result": "-0.0107 ± 0.000335", "unit": "kcal/mol"}, {"measurement": "excess molar enthalpy", "setting": "[2]; x2 = 0.26", "result": "-0.011 ± 0.000335", "unit": "kcal/mol"}, {"measurement": "excess molar enthalpy", "setting": "[2]; x2 = 0.3488", "result": "-0.00872 ± 0.000287", "unit": "kcal/mol"}, {"measurement": "excess molar enthalpy", "setting": "[2]; x2 = 0.4432", "result": "-0.00416 ± 0.000215", "unit": "kcal/mol"}, {"measurement": "excess molar enthalpy", "setting": "[2]; x2 = 0.4765", "result": "-0.0022 ± 0.000215", "unit": "kcal/mol"}, {"measurement": "excess molar enthalpy", "setting": "[2]; x2 = 0.5624", "result": "0.00311 ± 0.000215", "unit": "kcal/mol"}, {"measurement": "excess molar enthalpy", "setting": "[2]; x2 = 0.6834", "result": "0.00978 ± 0.000311", "unit": "kcal/mol"}, {"measurement": "excess molar enthalpy", "setting": "[2]; x2 = 0.7603", "result": "0.0122 ± 0.000359", "unit": "kcal/mol"}, {"measurement": "excess molar enthalpy", "setting": "[2]; x2 = 0.8001", "result": "0.0126 ± 0.000359", "unit": "kcal/mol"}, {"measurement": "excess molar enthalpy", "setting": "[2]; x2 = 0.8744", "result": "0.0112 ± 0.000335", "unit": "kcal/mol"}, {"measurement": "excess molar enthalpy", "setting": "[2]; x2 = 0.9453", "result": "0.00643 ± 0.000263", "unit": "kcal/mol"}]}]}
